Results on 6 compounds are retold here after US12564631B2, “Phytosphingosine derivatives as adjuvants in immune stimulation” (Helmholtz-Zentrum für Infektionsforschung GmbH, priority 2020, dated 2026).

In series [1] the test system is Th1-type / Th2-type response. The conditions noted are these: literature cited in background; cited from earlier work.
The test system of a further series is CD19+ B cells. The series can be described thus: CFSE proliferation assay of CD19+ B cells after interaction with Ova/adjuvant-matured bone marrow derived DCs (APC). It is filed as cell-based, mice. The conditions noted are these: FIG. 3A; for toxicity against B cells: effect not comparable to adjuvant controls. On the procedure:
FIG. 3A: Cell proliferation tracked by CFSE dilution of B cells after interaction with matured Antigen Presenting Cells (APC). With every cell division, the CFSE signal strength is approximately halved. The observed cell numbers indicate the ratio of proliferating viable CD19+ B cells.
(§1) In order to assess the properties of the inventive compounds in antigen-specific T and B cell stimulation, the compounds were administered to cultured bone marrow cells in a CFSE assay.
(§2) Briefly, femurs and Tibiae of female 4-12 weeks old C57Bl6 (or BALB/c for TCR HA) were removed and purified from the surrounding muscle tissue (Kleenex tissues). Intact Bones were left in 70% ethanol for 2-5 min for disinfection. Both ends were cut with scissors and the bone marrow were flushed with PBS using a syringe with a 0.45 mm diameter needle, clusters were disintegrated by vigorous pipetting.
(§3) In order to obtain activated antigen presenting dendritic cells (DCs), bone marrow cells were cultured with GM-CSF. On Day 0, cells were seeded in a concentration of 2×10^6 cells per 100 mm dish (bacteriological petri dishes) in 10 ml RPMI-10 (100 U Pen/100 μg Strept/2 mM Glutamin/50 μm ß-Mercaptoethanol/10% FCS heat-inactivated and filtered 0.22 μm Filter) containing 200 Units GM-CSF. On Day 3 another 10 ml RPMI-10 containing 200 U GM-CSF were added to the plates. On Day 6 half of the culture supernatants (10 ml) were collected, centrifuged and the cell pellet resuspended in 10 ml fresh RPMI-10/200 U GM-CSF and given back into the original plates.
(§4) Subsequently, the DCs were incubated with Ovalbumin (as antigen) alone or co-administered with known adjuvants, such as α-GalCerMPEG, aßGalCerMPEG or TLR2/6 ligand (BPPcysMPEG), or the novel phytosphingosine derivatives of the present invention. The activation of DCs was controlled by FACS analysis of different CD markers, such as CD40, CD54, CD80, CD86, CD83, MHCI and MHCII.
(§5) The effect of the compounds of the present invention was then ascertained via co-incubation of naïve T or B cells, obtained from mice (OTI or OTII mice) with previous exposure to the Ova antigen, with DCs that had been treated with the compounds of the invention.
CFSE staining of the CD4+ or CD8+ naïve T cells is then carried out according to standard procedures. Subsequently, 2-5×10^4 DCs (as mature antigen presenting cells APCs) are incubated with 4×10^5 CFSE+ T cells (OTI or OTII) per well (ratio DC/T cells is […]). A CFSE proliferation assay is then conducted, using on Day +5 or on Day +7 a FACS analysis (CFSE/LD/CD4/CD8/CD19/Thy1.1), providing a cell count for the desired cell type based on CFSE. With every cell division, the CFSE signal strength is approximately halved. The cells marked with CFSE can therefore be used to determine the proliferation of CD19+ B cells, CD4+ or CD8+ T cells in response to treatment with activated DCs, that were treated with or without the compounds of the invention.
As is shown in FIG. 3A, cell proliferation of B cells is tracked by CFSE dilution after interaction with APCs. With every cell division, the CFSE signal strength is approximately halved. Therefore, the compounds of the invention show an effect on inducing antigen specific CD19+ cell proliferation.
On day −1, mature DCs were restimulated with Ovalbumin (antigen) co-administered with 10 μg of the different novel phytosphingosine derivatives (0964-1917) or with positive controls (α-GalCerMPEG, aßGalCerMPEG, CDA or BPPcysPEGdef) for 24 h.

The test system of a further series is splenocytes. As to the kind of experiment: Unspecific proliferation assay of splenocytes ([3H]thymidine incorporation). The conditions noted are these: for Stimulation index (SI): splenocytes restimulated 96 h with 1, 10 and 20 μg/ml compound, ratio of [3H]-thymidine uptake of stimulated versus non-stimulated samples, FIG. 2E/2F; for induction of unspecific proliferation in splenocytes: summary statement. In kind it is cell-based, mice. As to the method:
FIG. 2: Analysis of unspecific proliferative responses of murine cells stimulated without or with enhanced concentrations of the Phytosphingosine-compounds. Splenocytes from mice were re-stimulated for 96 h with different concentrations of adjuvant (1, 10 and 20 μg/ml). The results are presented by are expressed (A-C) as counts per minute (cpm) and (D-F) stimulation index (SI) being the ratio of [^3H]-thymidine uptake of stimulated versus non-stimulated samples. (A) and (D) show data for α-GalCer controls, (B) and (E) show data for IPB1901-1910, and (C) and (F) show data for IPB1911-1917.
In order to assess the properties of the inventive compounds in antigen-unspecific immune response stimulation the compounds were administered to splenocytes in an established proliferation assay.
For the proliferation assay, splenocytes (5×10^6 cells/ml) are seeded at 100 μl per well in a U-bottomed 96-well microtiter plate (Sarstedt Inc., Newton, N.C.) and cultured in quadruplicates 4 days in the presence of enhanced concentrations of adjuvant (1, 10 and 20 μg/ml)), 5 μg/ml of Concanavalin A (max); or medium alone. Eighteen hours before harvesting, 1 μCi of [3H]thymidine (Amersham International, Freiburg, Germany) is added to each well. Cells are harvested on paper filters (Filtermat A; Wallac, Freiburg, Germany) using a cell harvester (Inotech, Wohlen, Switzerland) and the incorporation of [3H] thymidine into the DNA of proliferating cells is determined using a scintillation counter (Wallac 1450, Micro-Trilux).

The next series deals with CD4+ T cells. As to the kind of experiment: CFSE proliferation assay of CD4+ T cells after interaction with Ova/adjuvant-matured bone marrow derived DCs (APC). In kind it is cell-based, mice. The conditions noted are these: for stimulating effect of CD4+ T cells versus controls with only antigen Ova: CFSE loss up to 7 days, DCs activated with Ova + 10 μg compound, FIG. 4A/4B; for capacity to induce antigen specific CD4+ T cell proliferation: DCs restimulated with Ovalbumin + 10 μg compound for 24 h, interaction with APC for 5 days.
Text: FIG. 3B: Cell proliferation tracked by CFSE dilution of CD4+ T cells after interaction with matured Antigen Presenting Cells (APC). With every cell division, the CFSE signal strength is approximately halved. The shown cell numbers indicate the ratio of proliferated live CD4+ T cells.
(§6) FIG. 4: Effect after treatment with IPB 0964-1917—Cell proliferation tracked by CFSE loss of T cells after interaction with matured Antigen Presenting Cells (APC). With every cell division, the CFSE signal strength is reduced. The shown cell numbers indicate the ratio of proliferating T and B cells (7 steps are shown). (A) Numbers of CD4+ T cells are shown at different proliferation steps up to 7 days measuring the loss of CFSE. Naïve cells were treated with one of IPB1901-1912 together with DCs activated with Ova prior to the CFSE assay. (B) Numbers of CD4+ T cells are shown at different proliferation steps up to 7 days measuring the loss of CFSE. Naïve cells were treated with one of IPB2033-2044 together with DCs activated with Ova prior to the CFSE assay. (C) Numbers of CD8+ T cells are shown at different proliferation steps up to 7 days measuring the loss of CFSE. Naïve cells were treated with one of IPB1901-1912 together with DCs activated with Ova prior to the CFSE assay. (D) Numbers of CD8+ T cells are shown at different proliferation steps up to 7 days measuring the loss of CFSE. Naïve cells were treated with one of IPB2033-2044 together with DCs activated with Ova prior to the CFSE assay.
as §1, §2, §3, §4, §5
(§7) Naïve T cells were derived from LN/spleen from OTI or OTII mice. The MagniSort™ Mouse CD4 naïve or CD8 naïve T cell Enrichment Kit is designed for the magnetic separation of CD4 or CD8 naïve T cells by negative selection from mouse spleens or lymph nodes utilizing a biotinylated antibody cocktail and streptavidin-coated magnetic beads. Undesired cells are bound by antibody (Anti-Mouse CD8 or CD4/CD11b CD19/CD24/CD44/CD45R(B220)/CD49b(Integrin α 2)/Ly-6G (Gr-1)/γδ TCR/TER-119) and then magnetic beads that, when placed in a magnetic field, leave CD4 or CD8 naïve T cells untouched and free in solution. […]

A further series has as its system CD8+ T cells. As to the kind of experiment: CFSE proliferation assay of CD8+ T cells after interaction with Ova/adjuvant-matured bone marrow derived DCs (APC). In kind it is cell-based, mice. The conditions noted are these: for stimulating effect of CD8+ T cells versus controls with only antigen Ova: CFSE loss up to 7 days, DCs activated with Ova + 10 μg compound, FIG. 4C/4D.
Text: FIG. 3C: Cell proliferation tracked by CFSE dilution of CD8+ T cells after interaction with matured Antigen Presenting Cells (APC). With every cell division, the CFSE signal strength is approximately halved. The shown cell numbers indicate the ratio of proliferated live CD8+ T cells
as §6, §1, §2, §3, §4, §5, §7

“Also recorded” adds a separate entry of the source.

On to `CCCCCCCCCCCCCC[C@@H](O)[C@@H](O)[C@H](CO[C@H]1O[C@H](CO)[C@H](O)[C@H](O)[C@H]1O)NC(=O)CCCCCCCCCCc1ccc(F)cc1` [7DW8-5], for which the “type of response elicited (Th1 / Th2)” value in series [1] was “elicit a Th1 response”.

For the compound `CCCCCCCCCCCCCC[C@@H](O)[C@@H](O)[C@H](CO[C@H]1OC(CO)[C@H](O)C(O)C1O)N(CC(=O)NCCCCCCCCCCCC)C(=O)CCCCCCCCCCCCC` (stereo partly drawn) [IPB 1901], in the series with CD19+ B cells, the “toxicity against B cells” value is “may show some toxicity against B cells”. In addition, in the series with splenocytes, the “Stimulation index (SI)” value worked out at 4 and the “induction of unspecific proliferation in splenocytes” value (shortened to “induction”) is listed as “beneficial induction of unspecific proliferation”. Further, the “stimulating effect of CD4+ T cells versus controls with only antigen Ova” value in the series with CD4+ T cells is listed as “stimulating effect of CD4+ T cells beyond controls”. Besides, in the series with CD8+ T cells, the “stimulating effect of CD8+ T cells versus controls with only antigen Ova” value is reported as “stimulating effect of CD8+ T cells beyond controls”.

`CCCCCCCCCCCCCC[C@@H](O)[C@@H](O)[C@H](CO[C@H]1OC(CO)[C@H](O)C(O)C1O)N(CC(=O)NCc1ccccc1)C(=O)CCCCCCC` (stereo partly drawn) [IPB 1902]: in the series on CD19+ B cells, the “toxicity against B cells” value is given as “may show some toxicity against B cells”. Also, the “induction” value in the series on splenocytes is on record as “beneficial induction of unspecific proliferation”. Also, the “stimulating effect of CD4+ T cells versus controls with only antigen Ova” value in the series on CD4+ T cells is “stimulating effect of CD4+ T cells beyond controls”. In addition, the “toxicity against CD4+ T cells” value in the series with CD4+ T cells (FIG. 3B, no improved effect over adjuvant controls) is “may show some toxicity against CD4+ T cells”. Also, in the series on CD8+ T cells, the “stimulating effect of CD8+ T cells versus controls with only antigen Ova” value is reported as “stimulating effect of CD8+ T cells beyond controls”.

In the case of `CCCCCCCCCCCCCC[C@@H](O)[C@@H](O)[C@H](CO[C@H]1OC(CO)[C@H](O)C(O)C1O)N(CC(=O)NC1CCCCC1)C(=O)CCCCCCCCCCC` (stereo partly drawn) [IPB 1903], the “toxicity against B cells” value in the series with CD19+ B cells was “may show some toxicity against B cells”. Also, in the series on splenocytes, the “Stimulation index (SI)” value is on record as over 10 and the “induction” value was “beneficial induction of unspecific proliferation”. In addition, the “stimulating effect of CD4+ T cells versus controls with only antigen Ova” value in the series on CD4+ T cells was “stimulating effect of CD4+ T cells beyond controls”. The “capacity to induce antigen specific CD4+ T cell proliferation” value in the series on CD4+ T cells (FIG. 3B) is “high capacity; also recorded: beneficial capacity”. In the series on CD8+ T cells, the “stimulating effect of CD8+ T cells versus controls with only antigen Ova” value is listed as “stimulating effect of CD8+ T cells beyond controls”.

In the case of `CCCCCCCCCCCCCCCCCC(=O)N(CC(=O)NCCC(=O)OC(C)(C)C)[C@@H](CO[C@H]1OC(CO)[C@H](O)C(O)C1O)[C@H](O)[C@H](O)CCCCCCCCCCCCCC` (stereo partly drawn) [IPB 1909], the “capacity to induce antigen specific CD19+ B cell proliferation” value in the series with CD19+ B cells (DCs restimulated with Ovalbumin + 10 μg compound for 24 h, interaction with APC for 5 days) is on record as “particularly high capacity; also recorded: beneficial capacity”. In the series with CD4+ T cells (FIG. 3B), the “capacity to induce antigen specific CD4+ T cell proliferation” value is given as “high capacity; also recorded: beneficial capacity”. Also, the “effect to induce antigen specific CD8+ T cell proliferation” value in the series on CD8+ T cells (DCs restimulated with Ovalbumin + 10 μg compound for 24 h, interaction with APC for 5 days, FIG. 3C) is on record as “strong effect; also recorded: beneficial effect”.

Turning to `CCCCCCCCCCCCCCCCCCCCCCCC(=O)N[C@@H](CO[C@H]1O[C@H](CO)[C@H](O)[C@H](O)[C@H]1O)[C@H](O)[C@H](O)CCCCC` [OCH], the “type of response elicited (Th1 / Th2)” value in series [1] is “elicit a Th2-type response”.
